Laboratory results reported in US5910482A (priority 1996, dated 1999).

Key:
[1] = tested on: pregnant rats; test: Effects of L-NAME infusion on systolic blood pressure in pregnant rats; type: in vivo, rat; details: n = 5
Procedure: The effects of hypertensive agent L-NAME (50 mg/rat) on blood pressure were studied. […] L-NAME was infused as described in the FIG. 2.

[2] = tested on: pregnant rats; test: Delivery day and pup survival after L-NAME infusion to pregnant rats; effect of CGRP on fetal survival; type: in vivo; details: L-NAME 50/mg/day infusion to pregnant rats; 5 animals

COC(=O)[C@@H](N)CCCNC(=N)N[N+](=O)[O-] [L-NAME, N^G -nitro-L-arginine methyl ester]
Systolic Blood Pressure ([1]; Gestational Day 17 (before infusion start on day 18), L-NAME 50 mg/day): 116 ± 3 mm Hg
Systolic Blood Pressure ([1]; Gestational Day 18, L-NAME 50 mg/day infused from day 18): 137 ± 6 mm Hg
Systolic Blood Pressure ([1]; Gestational Day 19, L-NAME 50 mg/day infused from day 18): 154 ± 3 mm Hg
Systolic Blood Pressure ([1]; Gestational Day 22, L-NAME 50 mg/day infused from day 18): 137 ± 8 mm Hg
Systolic Blood Pressure ([1]; Postpartum PP Day 1, L-NAME 50 mg/day): 145 ± 5 mm Hg
Systolic Blood Pressure ([1]; Postpartum PP Day 2, L-NAME 50 mg/day): 140 ± 5 mm Hg
# of dead pups [2]: 10
Weight of pups [2]: 5.14 ± 0.07 g
